Inconclusive results and toxic doses are left out. No stated cut-off is given here; in the data, active means T/C of 150% or more; inactive means T/C below 125%.
System: L1210 leukemia ip in BDF1 mice, survival T/C
Test: NCI In Vivo Anticancer Drug Screen. Data for tumor model L1210 Leukemia (intraperitoneal) in B6D2F1 (BDF1) mice
Conditions: endpoint: mean survival time, higher = longer survival
Outline: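 Survival endpoint. Drug-treated group vs vehicle group, expressed as T divided by C. Tumor passaged by transplantation.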

[1] = dose: 100.0 mg/kg/injection, schedule: Q01DX001 (ip), vehicle: saline
[2] = dose: 200.0 mg/kg/injection, schedule: Q01DX001 (ip), vehicle: saline
[3] = dose: 400.0 mg/kg/injection, schedule: Q01DX001 (ip), vehicle: saline
[4] = dose: 100.0 mg/kg/injection, schedule: Q04DX003 (ip), vehicle: saline
[5] = dose: 200.0 mg/kg/injection, schedule: Q04DX003 (ip), vehicle: saline
[6] = dose: 400.0 mg/kg/injection, schedule: Q04DX003 (ip), vehicle: saline
[7] = dose: 100.0 mg/kg/injection, schedule: Q04DX003 (ip), vehicle: saline with Tween-80
[8] = dose: 200.0 mg/kg/injection, schedule: Q04DX003 (ip), vehicle: saline with Tween-80
[9] = dose: 400.0 mg/kg/injection, schedule: Q04DX003 (ip), vehicle: saline with Tween-80
[10] = dose: 100.0 mg/kg/injection, schedule: Q04DX003 (ip), vehicle: Klucel (hydroxypropylcellulose) (HPC)
[11] = dose: 200.0 mg/kg/injection, schedule: Q04DX003 (ip), vehicle: Klucel (hydroxypropylcellulose) (HPC)
[12] = dose: 400.0 mg/kg/injection, schedule: Q04DX003 (ip), vehicle: Klucel (hydroxypropylcellulose) (HPC)
[13] = dose: 50.0 mg/kg/injection, schedule: Q01DX001 (ip), vehicle: saline
[14] = dose: 100.0 mg/kg/injection, schedule: Q01DX009 (ip), vehicle: Klucel (hydroxypropylcellulose) (HPC)
[15] = dose: 200.0 mg/kg/injection, schedule: Q01DX009 (ip), vehicle: Klucel (hydroxypropylcellulose) (HPC)
[16] = dose: 400.0 mg/kg/injection, schedule: Q01DX009 (ip), vehicle: Klucel (hydroxypropylcellulose) (HPC)

Measured: T/C

CC(=O)N/N=C(/C)C(=O)O
inactive: dose: 50.0 mg/kg/injection, schedule: Q01DX009 (ip), vehicle: water 100 % of control | dose: 100.0 mg/kg/injection, schedule: Q01DX009 (ip), vehicle: water 100 % of control | dose: 100.0 mg/kg/injection, schedule: Q04DX003 (ip), vehicle: water 97 % of control | dose: 200.0 mg/kg/injection, schedule: Q04DX003 (ip), vehicle: water 106 % of control

NCC1CCCCC1
inactive: dose: 6.25 mg/kg/injection, schedule: Q01DX009 (ip), vehicle: saline 107 % of control | dose: 12.0 mg/kg/injection, schedule: Q04DX003 (ip), vehicle: saline 98 % of control | dose: 12.5 mg/kg/injection, schedule: Q01DX009 (ip), vehicle: saline 105 % of control | dose: 25.0 mg/kg/injection, schedule: Q01DX009 (ip), vehicle: saline 100 % of control | dose: 25.0 mg/kg/injection, schedule: Q04DX003 (ip), vehicle: saline 110 % of control | dose: 50.0 mg/kg/injection, schedule: Q01DX009 (ip), vehicle: saline 88 % of control | dose: 50.0 mg/kg/injection, schedule: Q04DX003 (ip), vehicle: saline 104 % of control

O=C(O)C(Cc1ccccc1)Cc1ccccc1
inactive: [1] 97 % of control | [2] 103 % of control | [3] 109 % of control

Nc1nc(-c2ccccc2)c(CCCCc2ccccc2)c(=O)[nH]1
inactive: dose: 50.0 mg/kg/injection, schedule: Q01DX Z (ip), vehicle: carboxymethylcellulose (CMC) 97 % of control | dose: 200.0 mg/kg/injection, schedule: Q01DX Z (ip), vehicle: carboxymethylcellulose (CMC) 89 % of control

C[Si](C)(C)n1ccnc1
inactive: [4] 100 % of control | [5] 105 % of control | [6] 94 % of control

O=C(O)Cn1cnc2cncnc21
inactive: [7] 118 % of control | [8] 104 % of control | [9] 102 % of control

Nc1ccc(N=Nc2ccccc2Cl)c(N)n1
inactive: dose: 50.0 mg/kg/injection, schedule: Q01DX001 (ip), vehicle: other 103 % of control | dose: 100.0 mg/kg/injection, schedule: Q01DX001 (ip), vehicle: other 100 % of control | dose: 200.0 mg/kg/injection, schedule: Q01DX001 (ip), vehicle: other 94 % of control | dose: 400.0 mg/kg/injection, schedule: Q01DX001 (ip), vehicle: other 100 % of control

CC(=O)/C(=C\c1ccccc1)c1ccccc1
inactive: [10] 96 % of control | [11] 91 % of control | [12] 98 % of control

CN(C/C=C/CN(C)P(=S)(N1CC1)N1CC1)P(=S)(N1CC1)N1CC1
inactive: dose: 100.0 mg/kg/injection, schedule: Q01DX001 (ip), vehicle: carboxymethylcellulose (CMC) 96 % of control | dose: 200.0 mg/kg/injection, schedule: Q01DX001 (ip), vehicle: carboxymethylcellulose (CMC) 93 % of control | dose: 400.0 mg/kg/injection, schedule: Q01DX001 (ip), vehicle: carboxymethylcellulose (CMC) 109 % of control

O=c1cc(O)nc(C(F)(F)F)[nH]1
inactive: dose: 29.0 mg/kg/injection, schedule: Q01DX Z (ip), vehicle: methylcellulose (MC) 92 % of control | dose: 44.0 mg/kg/injection, schedule: Q01DX Z (ip), vehicle: methylcellulose (MC) 96 % of control | dose: 66.0 mg/kg/injection, schedule: Q01DX Z (ip), vehicle: methylcellulose (MC) 103 % of control | dose: 100.0 mg/kg/injection, schedule: Q01DX Z (ip), vehicle: methylcellulose (MC) 100 % of control

O=[N+]([O-])c1ccc2c(c1)c(-c1cc(Cl)cc(Cl)c1)nc1ccccc12
inactive: dose: 50.0 mg/kg/injection, schedule: Q01DX009 (ip), vehicle: saline with Tween-80 104 % of control | dose: 100.0 mg/kg/injection, schedule: Q01DX009 (ip), vehicle: saline with Tween-80 103 % of control | [7] 93 % of control | dose: 200.0 mg/kg/injection, schedule: Q01DX009 (ip), vehicle: saline with Tween-80 106 % of control | [8] 90 % of control | [9] 93 % of control

Cc1ccc(O)c(N=O)c1.[Co]
inactive: [13] 97 % of control | [1] 109 % of control | [2] 115 % of control

CN=C(c1ccc(NC(=O)c2ccc(C(=O)Nc3ccc(C(=NC)N4CCOCC4)cc3)c(Cl)c2)cc1)N1CCOCC1
inactive: dose: 0.94 mg/kg/injection, schedule: Q01DX Z (ip), vehicle: carboxymethylcellulose (CMC) 104 % of control | dose: 1.87 mg/kg/injection, schedule: Q01DX Z (ip), vehicle: carboxymethylcellulose (CMC) 101 % of control | dose: 3.75 mg/kg/injection, schedule: Q01DX Z (ip), vehicle: carboxymethylcellulose (CMC) 98 % of control | dose: 7.5 mg/kg/injection, schedule: Q01DX Z (ip), vehicle: carboxymethylcellulose (CMC) 87 % of control | dose: 15.0 mg/kg/injection, schedule: Q01DX Z (ip), vehicle: carboxymethylcellulose (CMC) 91 % of control | dose: 30.0 mg/kg/injection, schedule: Q01DX Z (ip), vehicle: carboxymethylcellulose (CMC) 91 % of control | dose: 60.0 mg/kg/injection, schedule: Q01DX Z (ip), vehicle: carboxymethylcellulose (CMC) 91 % of control

CCOC(=O)c1c[nH]c2ccc(OC)cc2c1=O
inactive: dose: 100.0 mg/kg/injection, schedule: Q01DX009 (ip), vehicle: saline 96 % of control | [4] 98 % of control | dose: 200.0 mg/kg/injection, schedule: Q01DX009 (ip), vehicle: saline 98 % of control | [5] 102 % of control | dose: 400.0 mg/kg/injection, schedule: Q01DX009 (ip), vehicle: saline 96 % of control | [6] 100 % of control

CN(C)C(=S)SCNC(=S)NCSC(=S)N(C)C
inactive: [10] 106 % of control | [11] 96 % of control | [12] 98 % of control

O=C(Nc1cccc(Cl)c1Cl)N1CCN(c2ccccc2)CC1
inactive: [14] 92 % of control | [15] 96 % of control | [16] 97 % of control

COCCc1nnn(C)n1
inactive: dose: 100.0 mg/kg/injection, schedule: Q04DX002 (ip), vehicle: saline 97 % of control | dose: 200.0 mg/kg/injection, schedule: Q04DX002 (ip), vehicle: saline 97 % of control | dose: 400.0 mg/kg/injection, schedule: Q04DX002 (ip), vehicle: saline 108 % of control

Cn1c(=O)c(-c2ccccc2)[n+]([O-])c2ccccc21
inactive: [13] 104 % of control | [1] 101 % of control | [2] 101 % of control | [3] 101 % of control

Cc1cnc(N)c([N+](=O)[O-])c1
inactive: dose: 100.0 mg/kg/injection, schedule: Q01DX005 (ip), vehicle: Klucel (hydroxypropylcellulose) (HPC) 94 % of control | [14] 97 % of control | dose: 100.0 mg/kg/injection, schedule: Q04DX002 (ip), vehicle: Klucel (hydroxypropylcellulose) (HPC) 96 % of control | dose: 200.0 mg/kg/injection, schedule: Q01DX005 (ip), vehicle: Klucel (hydroxypropylcellulose) (HPC) 94 % of control | [15] 97 % of control | dose: 200.0 mg/kg/injection, schedule: Q04DX002 (ip), vehicle: Klucel (hydroxypropylcellulose) (HPC) 100 % of control | dose: 400.0 mg/kg/injection, schedule: Q01DX005 (ip), vehicle: Klucel (hydroxypropylcellulose) (HPC) 94 % of control | [16] 91 % of control | dose: 400.0 mg/kg/injection, schedule: Q04DX002 (ip), vehicle: Klucel (hydroxypropylcellulose) (HPC) 93 % of control

Source: PubChem BioAssay AID248 (DTP/NCI, 2004)
